“And” between values parts separate entries of the source, which are not always exact repeats. Identical values can stand only once.
| Compound | melting point |
| --- | --- |
| O=C(O)CC[C@H](NC(=O)OCc1ccccc1)C(=O)O [N-benzyloxycarbonyl-l-glutamic acid] | 119 °C |
| O=Cc1cccc(O)c1 [3-hydroxybenzaldehyde] | 105 °C |
| O=c1c(-c2ccc(O)cc2)coc2cc(O)cc(O)c12 [Genistein] | 302 °C |
| c1cc2ccc3cccc4ccc(c1)c2c34 [Pyrene] | 151 °C |
| Cc1c(Cl)cccc1C#N [3-chloro-2-methylbenzonitrile] | 22 °C |
| O=Cc1ccc(O)c([N+](=O)[O-])c1 [4-hydroxy-3-nitrobenzaldehyde] | 142 °C |
| CCCCCCCCOc1ccc(C(=O)O)cc1 [4-n-octyloxybenzoic acid] | 103 °C |
| Cc1cc(NS(=O)(=O)c2ccc(N)cc2)nc(C)n1 [Sulfisomidine] | 243 °C |
| Nc1ccc(N)cc1 [p-phenylenediamine] | 140 °C |
| Cc1ccc(C(=O)O)cc1 [p-toluic acid] | 180 °C |
| CC1(C)OC(=O)C(=Cc2ccc(-c3ccccc3)o2)C(=O)O1 | 143 °C |
| c1ccc2c(c1)ccc1cc3c(ccc4ccccc43)cc12 [1,2,5,6-Dibenzanthracene dibenz[a,h]anthracene] | 266 °C |
| CC(C)(C)OC(=O)N1CCC[C@@H](O)C1 [(R)-1-boc-3-hydroxypiperidine] | 47 °C |
| COc1ccc(CC#N)c(Cl)c1 [2-chloro-4-methoxyphenylacetonitrile] | 42 °C |
| C1COCCN1 [morpholine] | -5 °C |
| C/C=C/C=O [crotonaldehyde] | -76 °C |
| c1ccc2c(c1)Cc1ccccc1-2 [fluorene] | 114 °C and 116 °C |
| CCCN(CCC)S(=O)(=O)c1ccc(C(=O)O)cc1 [probenecid] | 198 °C |
| N#Cc1cncnc1N [4-aminopyrimidine-5-carbonitrile] | 255 °C |
| N#CCc1ccc(C(=O)O)cc1 [p-cyanomethyl_benzoic_acid] | 192 °C |
| CCCCC(=O)N(Cc1ccc(-c2ccccc2-c2nnn[nH]2)cc1)C(C(=O)O)C(C)C (configuration not stated) [valsartan] | 116 °C |
| O=C(O)c1ccccc1Nc1ccccc1 [N-phenylanthranilic acid] | 187 °C |
| CCCCC(=O)CC [3-heptanone] | -37 °C |
| ClCCCCCCl [1,5-dichloropentane] | -72 °C |

| Compound | melting point |
| --- | --- |
| C[C@]12CCC(=O)C[C@H]1CC[C@@H]1[C@@H]2CC[C@]2(C)C(=O)CC[C@@H]12 [(5beta)-Androstane-3,17-dione] | 147 °C |
| CC(C)COC(=O)C(C)C [isobutyl_isobutyrate] | -80 °C |
| c1ccc2c(c1)cc1ccc3cccc4ccc2c1c34 [Benzo[a]pyrene] | 176 °C |
| CCCCCCCC(=O)Oc1ccc(/N=N/c2ccc(CCCC)cc2)cc1 [4-[(E)-(4-butylphenyl)diazenyl]phenyl octanoate] | 64 °C |
| O=C(O)CN1C(=O)c2ccccc2C1=O [N-phthaloylglycine] | 196 °C |
| COc1ccc(C(=O)O)cc1 [4-Methoxybenzoic acid] | 184 °C |
| CCCCCCCCCCCCCc1ccccc1 [N-tridecylbenzene] | 10 °C |
| CCOC(=O)c1sc(N)nc1C [ethyl 2-amino-4-methylthiazole-5-carboxylate] | 174 °C |
| COC(=O)CC(C)CCC1C(C)(O)CCC2C(C)(C)CCCC21C (configuration not stated) | 70 °C |
| Sc1nc2ccccc2s1 [2-mercaptobenzothiazole] | 180 °C |
| CC(C)OC(=O)/N=N/C(=O)OC(C)C [diisopropyl azodicarboxylate] | 4 °C |
| O=C(O)COc1ccc(Cl)cc1Cl [(2,4-Dichlorophenoxy)acetic acid] | 138 °C |
| O=C(NC1CCCCC1)c1ccccc1 [N-cyclohexylbenzamide] | 162 °C |
| Cc1ncc([N+](=O)[O-])n1CCO [2-(2-Methyl-5-nitro-1H-imidazol-1-yl)ethanol] | 160 °C |
| Cc1cc(C=O)c(C)n1-c1ccccc1 [2,5-dimethyl-1-phenylpyrrole-3-carboxaldehyde] | 89 °C |
| O=c1[nH]cc(F)c(=O)[nH]1 [5-fluorouracil] | 283 °C |
| [O-][n+]1ccccc1 [pyridine n-oxide] | 64 °C |
| COC(=O)C(O)c1ccccc1[N+](=O)[O-] (configuration not stated) [methyl hydroxy(2-nitrophenyl)acetate] | 62 °C |
| Cc1ccccc1C1C=C(c2ccccc2)N=N1 (configuration not stated) [5-(2-methylphenyl)-3-phenyl-1H-pyrazole] | 108 °C |
| OB(O)c1ccc(Cl)cc1 [4-chlorobenzeneboronic acid] | 273 °C |
| ClCc1cccc(CCl)c1 [m-xylylene dichloride] | 35 °C |
| CC(=O)Nc1ccc(C(=O)O)cc1 [4-acetamidobenzoic acid] | 260 °C |
| OCCOc1ccccc1 [2-phenoxyethanol] | 12 °C |
| ClC1C(Cl)C(Cl)C(Cl)C(Cl)C1Cl (configuration not stated) [1,2,3,4,5,6-Hexachlorocyclohexane] | 113 °C |

| Compound | melting point |
| --- | --- |
| O=C1OS(=O)(=O)c2ccccc21 [2-sulfobenzoic anhydride] | 120 °C |
| CCN(CC)CCNC(=O)c1cc(Cl)c(N)cc1OC [metoclopramide] | 147 °C |
| COc1cc(F)ccc1C(=O)O [4-fluoro-2-methoxybenzoic acid] | 135 °C |
| CCC(=O)c1ccccc1 [propiophenone] | 19 °C |
| Cn1c(C=O)nc2ccccc21 [1-methylbenzimidazole-2-carboxaldehyde] | 120 °C |
| N#CCc1ccccc1[N+](=O)[O-] [(2-Nitrophenyl)acetonitrile] | 84 °C |
| c1ccc(-c2nnc(-c3ccccc3)o2)cc1 [2,5-diphenyl-1,3,4-oxadiazole] | 140 °C |
| C1=CCCCCCCCCCC1 [cyclododecene_(trans)] | 0 °C |
| Cc1cccc(N)c1N [2,3-diaminotoluene] | 58 °C |
| CN(C)C1=NC(=O)C(c2ccccc2)O1 (configuration not stated) [thozalinone] | 133 °C |
| C1=C\CCCCCC/1 [cis-cyclooctene] | -16 °C |
| O=C(CCCl)c1ccc(F)cc1 [3-chloro-4'-fluoropropiophenone] | 48 °C |
| OCc1ccc(O)cc1 [4-hydroxybenzyl_alcohol] | 112 °C |
| O=[N+]([O-])c1ccc(Oc2ccc(C(F)(F)F)cc2[N+](=O)[O-])cc1 [Fluorodifen] | 90 °C |
| CCOC(=O)/C(C#N)=C\c1ccc(-c2ccccc2)o1 [Ethyl (2Z)-2-cyano-3-(5-phenyl-2-furyl)acrylate] | 117 °C |
| CCC(C)=NO [N-Hydroxybutan-2-imine] | -29.5 °C |
| CC(=O)OC(C)=O [acetic anhydride] | -73 °C |
| O=C(Cl)c1cncc(Br)c1 [5-bromonicotinoyl chloride] | 73 °C |
| CCCCCCO [Hexan-1-ol] | -52 °C |
| BrCCCCCCCCBr [1,8-dibromooctane] | 16 °C |
| O=C(O)c1cccc(O)c1 [3-hydroxybenzoic_acid] | 203 °C |
| O=C1CC(=O)c2ccccc21 [1,3-indanedione] | 130 °C |
| CCCC(C)(C)O [2-methyl-2-pentanol] | -102 °C |
| N#Cc1ccc(-c2ccc(C#N)cc2)cc1 [p,p'-dicyanobiphenyl] | 237 °C |

Reference: the Bradley open melting point set (2014)
